Test results from article PMC8585049, “Z-DNA as a Tool for Nuclease-Free DNA Methyltransferase Assay” (International Journal of Molecular Sciences, 2021).
“Also recorded” adds a separate entry of the source. Like-named read-outs stand apart in the source and are kept apart here.

Tests used:
M.SssI = molecular target: T1, M.SssI (Spiroplasma monobiae, UniProt P15840); assay: smFRET B-Z transition-based DNA methylation (DMT inhibition) assay with M.SssI, UM core substrate; format: biochemical
T1 construct: purchased NEB (New England Biolabs, Inc., Ipswich, MA, USA)
T1 sequence (P15840 whole entry): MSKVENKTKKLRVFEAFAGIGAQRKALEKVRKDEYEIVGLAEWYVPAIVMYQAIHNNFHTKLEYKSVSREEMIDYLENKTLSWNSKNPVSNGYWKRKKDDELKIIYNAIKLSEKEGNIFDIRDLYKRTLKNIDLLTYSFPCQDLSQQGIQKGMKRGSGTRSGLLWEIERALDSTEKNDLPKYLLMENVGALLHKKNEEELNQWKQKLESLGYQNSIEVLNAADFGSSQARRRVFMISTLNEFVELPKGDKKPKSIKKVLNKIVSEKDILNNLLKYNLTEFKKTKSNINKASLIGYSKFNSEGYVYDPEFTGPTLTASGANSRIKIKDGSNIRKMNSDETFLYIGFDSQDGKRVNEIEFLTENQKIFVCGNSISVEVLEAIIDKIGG
Method: (§1) Here we define the degree of inhibition as: DOI=P(Z;DMT)−P(Z;DMT+drug)/P(Z;DMT)−P(Z;0) where P(Z;0) is the population of Z-DNA without any treatment (neither DMT nor inhibitor drug), P(Z;DMT) the Z-DNA population after incubation with DMT, and P(Z;DMT+drug) the Z-DNA population after incubation with DMT together with an inhibitor drug. […] On the opposite limit, the inhibition would be complete (DOI = 1) if P(Z;DMT+drug) completely reduces to the level of P(Z;0) . We employed the UM and HM molecules as substrates for M.SssI and DNMT1, respectively. We used 50 mM Mg^2+ and applied 80 U/mL M.SssI or 100 U/mL DNMT1. […] To check this possibility, we reduced SAM to 10 μM and repeated the inhibitor assay.
(§2) DMTs can change cytosine to methylcytosine by converting SAM to SAH (S-adenosyl homocysteine). In the inhibitor-free assay, we added reagents to water (or 0, 1.75, and 2.5% DMSO in water in control reactions for inhibitor assays) in the following order: SAM, 10× buffer, DNA, and M.SssI or DNMT1. In the DNMT1 assay, the reaction mixture of 20 μL contained 25 nM DNA duplex and 20~400 U/mL (in the inhibitor-free assays) or 100 U/mL (in the inhibitor assays) DNMT1 in the reaction buffer (160 μM SAM and 100 μg/mL BSA in 1× DNMT1 buffer (200 mM NaCl, 50 mM Tris-HCl, 1 mM EDTA, 1 mM DTT, 50% glycerol, pH 7.5)). In the M.SssI assay, the reaction mixture of 20 μL contained 25 nM DNA duplex and 10~200 U/mL (in the inhibitor-free assays) or 80 U/mL (in the inhibitor assays) M.SssI in the reaction buffer (160 μM SAM in 1× NEB buffer 2 (50 mM NaCl, 10 mM Tris-HCl, 10 mM MgCl2, 1 mM DTT, pH 7.9)). The effect of DMSO itself was tested because it was used in a solvent for DMT inhibitors. […] The mixture was incubated at 37 °C. After various lengths of incubation time (typically 2 h), the methylation reaction was stopped by heat inactivation of the enzymes at 65 °C for 20 min and the reaction mixtures were stored at −20 °C until the future experiments with the smFRET technique.
In the DMT inhibition assays, DMT inhibitors at various concentrations were added together with either M.SssI or DNMT1 when the enzyme was added to the reaction tube (Figure 4A). The reaction and analysis were performed identically except for the addition of inhibitors. […] In these assays, we varied the concentrations of the reagents (proteins or inhibitors) or incubation times. […]

[1] = molecular target: T2, human DNA methyltransferase 1 (DNMT1) (Homo sapiens, UniProt P26358); assay: smFRET B-Z transition-based DNA methylation (DMT inhibition) assay with DNMT1, HM core substrate; format: biochemical; conditions: 100 U/mL DNMT1, HM core, 160 μM SAM, 50 mM Mg2+, 2-h incubation; read-out: IC50 (degree of inhibition of DNMT1 methylation activity)
T2 construct: purchased NEB (New England Biolabs, Inc., Ipswich, MA, USA)
T2 sequence (P26358 whole entry): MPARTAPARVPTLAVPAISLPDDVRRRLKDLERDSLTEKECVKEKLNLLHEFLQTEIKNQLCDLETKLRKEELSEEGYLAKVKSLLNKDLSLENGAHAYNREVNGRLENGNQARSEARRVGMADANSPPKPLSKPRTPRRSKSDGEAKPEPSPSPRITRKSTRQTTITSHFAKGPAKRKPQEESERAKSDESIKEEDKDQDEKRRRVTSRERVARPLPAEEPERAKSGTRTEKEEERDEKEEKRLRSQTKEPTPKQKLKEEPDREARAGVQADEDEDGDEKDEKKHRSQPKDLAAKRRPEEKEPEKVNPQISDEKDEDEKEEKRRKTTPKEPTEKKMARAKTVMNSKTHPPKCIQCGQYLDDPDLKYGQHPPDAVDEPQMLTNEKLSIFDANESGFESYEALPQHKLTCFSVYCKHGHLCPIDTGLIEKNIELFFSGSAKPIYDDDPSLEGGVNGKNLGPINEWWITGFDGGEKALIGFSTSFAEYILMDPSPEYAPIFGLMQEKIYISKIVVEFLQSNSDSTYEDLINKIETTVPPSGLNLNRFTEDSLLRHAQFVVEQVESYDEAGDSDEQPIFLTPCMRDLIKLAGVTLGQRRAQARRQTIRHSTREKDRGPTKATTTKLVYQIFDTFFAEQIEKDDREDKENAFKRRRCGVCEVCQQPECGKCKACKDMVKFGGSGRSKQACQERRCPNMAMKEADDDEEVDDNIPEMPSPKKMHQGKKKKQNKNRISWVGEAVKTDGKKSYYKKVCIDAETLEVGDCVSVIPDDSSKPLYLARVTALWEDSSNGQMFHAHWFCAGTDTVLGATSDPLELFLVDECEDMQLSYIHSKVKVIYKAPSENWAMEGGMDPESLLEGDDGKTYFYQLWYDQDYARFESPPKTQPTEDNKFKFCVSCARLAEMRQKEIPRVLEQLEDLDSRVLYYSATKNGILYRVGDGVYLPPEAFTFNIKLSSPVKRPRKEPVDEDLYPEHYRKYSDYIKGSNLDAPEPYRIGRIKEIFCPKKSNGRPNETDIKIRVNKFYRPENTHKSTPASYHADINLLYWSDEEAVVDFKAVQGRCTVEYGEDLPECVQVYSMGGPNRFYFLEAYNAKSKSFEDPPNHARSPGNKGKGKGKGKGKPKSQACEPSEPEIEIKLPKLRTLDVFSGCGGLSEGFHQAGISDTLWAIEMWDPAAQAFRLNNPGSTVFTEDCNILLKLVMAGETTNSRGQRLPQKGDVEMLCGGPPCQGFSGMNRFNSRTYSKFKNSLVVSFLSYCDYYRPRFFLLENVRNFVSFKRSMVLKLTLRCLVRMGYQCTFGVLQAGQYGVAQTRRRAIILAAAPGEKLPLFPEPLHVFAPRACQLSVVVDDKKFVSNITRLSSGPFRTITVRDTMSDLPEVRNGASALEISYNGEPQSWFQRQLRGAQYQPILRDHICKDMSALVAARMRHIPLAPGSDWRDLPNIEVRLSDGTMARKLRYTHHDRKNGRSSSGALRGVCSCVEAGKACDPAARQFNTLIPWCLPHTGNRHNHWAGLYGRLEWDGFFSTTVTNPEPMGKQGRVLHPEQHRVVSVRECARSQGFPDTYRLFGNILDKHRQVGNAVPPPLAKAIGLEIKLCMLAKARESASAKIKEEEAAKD
Method: as §1
as §2, with “technique. […]” for “technique.”

IC50 [1] [µM]	IC50 (M.SssI; 80 U/mL M.SssI, UM core, 160 μM SAM, 50 mM Mg2+, 2-h incubation, read-out: IC50 (degree of inhibition of M.SssI methylation activity)) [µM]	IC50 (M.SssI; [SAM] = 10 μM, M.SssI, Figure S8, read-out: IC50 (degree of inhibition of M.SssI methylation activity) with low [SAM]) [µM]	Structure (SMILES)	Effect of [DMSO] on DNA methylation activity of M.SssI (M.SssI; [DMSO] up to 5 %, [M.SssI] = 80 U/ml, 50 mM Mg2+, Figure S1)	IC50 (M.SssI; IC50 (degree of inhibition of M.SssI methylation activity), 80 U/mL M.SssI, UM core, 160 μM SAM, 50 mM Mg2+, 2-h incubation) [µM]
			C[S+](C)[O-] [DMSO]	remains unchanged; also recorded: negligible effect	
~1.3			COc1cc(/C=C/C(=O)CC(=O)/C=C/c2ccc(O)c(OC)c2)ccc1O [curcumin]		
~100	~80	< 5	O=C(O[C@@H]1Cc2c(O)cc(O)cc2O[C@@H]1c1cc(O)c(O)c(O)c1)c1cc(O)c(O)c(O)c1 [EGCG, epigallocatechin gallate]		

Structure (SMILES)	IC50 [1] [µM]	IC50 (M.SssI; 80 U/mL M.SssI, UM core, 160 μM SAM, 50 mM Mg2+, 2-h incubation, read-out: IC50 (degree of inhibition of M.SssI methylation activity)) [µM]	IC50 (M.SssI; [SAM] = 10 μM, M.SssI, Figure S8, read-out: IC50 (degree of inhibition of M.SssI methylation activity) with low [SAM]) [µM]	Effect of [DMSO] on DNA methylation activity of M.SssI (M.SssI; [DMSO] up to 5 %, [M.SssI] = 80 U/ml, 50 mM Mg2+, Figure S1)	IC50 (M.SssI; IC50 (degree of inhibition of M.SssI methylation activity), 80 U/mL M.SssI, UM core, 160 μM SAM, 50 mM Mg2+, 2-h incubation) [µM]
O=c1c(-c2ccc(O)cc2)coc2cc(O)cc(O)c12 [genistein]	~400				~600
